Measurements taken from EP2656853A1, “METHOD FOR TREATING ACUTE CEREBRAL AND SPINAL BLOOD FLOW DISORDERS OF AN ISCHAEMIC OR HA[…]” (Zakrytoe Aktsionernoe Obschestvo "Pharm-Sintez", priority 2010, dated 2012).

Key:
murine bone marrow cells [1] = details: positive control, 20 mg/kg intraperitoneally, male mice
Description: The Study purpose was to reveal and quantitatively assess the cytogenetic activity (mutagenicity) of the pharmacologic drugs in the mammalian bone marrow polychromatophils. The method's base is the micronuclei cells microscopic registration.
The experimental used the male and female F1(CBAx C57BI6/J) hybrid mice, two-month age, 18 to 20 grams body weight. Every group included 6 animals. The animals were kept under the 12-hour light regime, with freely available water and food. The single and five fold administration protein-polypeptide complex mutagenicity assessment animal experiments were in compliance with the official protocols. Three experimental series with relevant controls were performed: therapeutic dosage: males, single administration; subtoxic dosage: males, single administration; and therapeutic dosage: males and females, five fold administration. […]
(§1) The bone marrow cells preparations for the micronuclei account were made in conventional manner, in accordance with the "Micronuclear Test Environmental Factors Mutagenicity Assessment in Mammalian Organs Cells" Guidelines. […] 2000 polychromatophils per animal were then analyzed with coded preparations. At the 500 erythrocytes count the polychromatophil to normochromatic erythrocytes ratio was determined.

murine bone marrow cells [2] = details: positive control, 20 mg/kg intraperitoneally, male mice; remark: listed apart in the source
Description: The Study purpose is to reveal and quantitatively assess the cytogenetic activity (mutagenicity) of the pharmacologic drugs in the mammalian bone marrow polychromatophils. The method's base is the micronuclei cells microscopic registration.
The experimental used the male and female F1(CBAx C57BI6/J) hybrid mice, two-month age, 18 to 20 grams body weight. Every group included 6 animals. The animals were kept under the 12-hour light regime, with freely available water and feed. The single and five fold administration protein-polypeptide complex mutagenicity assessment animal experiments were in compliance with the official protocols. Three experimental series with relevant controls were performed: therapeutic dosage: males, single administration; subtoxic dosage: males, single administration; and therapeutic dosage: males and females, five fold administration. […]
as §1

## O=P1(N(CCCl)CCCl)NCCCO1 (stereo not shown) [cyclophosphamide]
Murine bone marrow cells [1]
  higher micronuclei cells vs. control: 19.6 fold
Murine bone marrow cells [1]; control 3.16‰
  micronuclei cells: 62.1 ‰
Murine bone marrow cells [2]
  higher micronuclei cells count vs. control: 19.6 fold
Murine bone marrow cells [2]; control 3.16‰
  micronuclei cells count: 62.1 ‰
